Results on 2 molecules are retold here after US20050249831A1, “Herbal extract comprising a mixture of saponins obtained from sapindus trifoliatus for anticonvulsant activity” (priority 2002, published 2005).

Assay [1] deals with PTZ induced seizures in rats. Format: in vivo. To be noted: 4 mg/kg, i.p., 2 ml/kg, standard control.
Assay [2] deals with MES induced seizures in rats. In words: Maximal Electroshock Seizure (MES) model. In kind it is in vivo. To be noted: Rattus norvegicus, ip, read-out: ED50, protection to hind limb tonic extension due to electroshock. The protocol:
In order to evaluate the efficacy of the extract of Sapindus trifoliatus, for its prophylactic therapeutic potential in migraine, its role as an anticonvulsant was evaluated in an in vivo animal model. […]
Male Wistar rats (150-200 g) were used in the study. […] Mortality if any was recorded. […]
Values of incidence and mortality were expressed as ratios and analysed by Fisher's test. The latency for onset and duration of hind limb extension of maximal electroshock induced convulsions were averaged, expressed as mean±standard deviation. Mean values were analysed by one way ANOVA followed by Dunnett ‘t’ test for multiple comparison or Students ‘t’ test for comparing two means. […] ED50 values were calculated by probit analysis [Finney, D. J., Probit Analysis, Cambridge University Press, London, 1947].
For orientation: Protection in the maximal electroshock model is a classic sign of anticonvulsant action.

Take `CN1C(=O)CN=C(c2ccccc2)c2cc(Cl)ccc21` [diazepam, Diazepam]: the “Protection against PTZ induced seizures” value in assay [1] is on record as “significantly protected”.

Usually ED50 stands for the dose that gives a 50% effect, or the effect in half of the subjects. With `CCCC(CCC)C(=O)[O-].[Na+]` [Sodium valproate], the ED50 in assay [2] came to 67.7 mg/kg.
